Patent publication US6083929A, “Extended type 1 chain glycosphingolipids as tumor-associated antigens” (The Biomembrane Institute, priority 1992, dated 2000)
Entries after “also recorded” stand apart in the source; their conditions may differ. Read-outs that look alike come from different tables or passages of the source.

Legend:
[1] = system: MAb IMH2; test: TLC immunostaining / solid-phase ELISA reactivity of MAb IMH2 with GSL antigens; design: species or system mouse; settings: TLC immunostaining / antibody binding on solid-phase antigen, IMH2 5 μg/ml
Procedure: FIG. 8 graphically illustrates the reactivity of MAb IMH2 with various glycosphingolipids (GSLs). Serial double dilutions of various GSL antigens were added to 96-well flat-bottom assay plates (Probind plate, Falcon) in ethanol and dried. Initial concentration of GSL added to the first well was 100 ng/well. MAb binding assay was performed by ELISA as described below. Abscissa, reciprocal of antigen dilution. Ordinate, optical density reading at 490 nm. Paragloboside is abbreviated as "PG". Panel A: reactivity of type 1 chain GSLS. .circle-solid., Le^b /Le^a. .smallcircle., Le^b hexasaccharide (IV^2 FucIII^4 FucLc4). Δ, Le^a /Le^a. .quadrature. […] Panel B: reactivity of type 2 chain GSLs. .circle-solid., Le^y /Le^x (VI^2 FucV^3 FucIII^3 FucnLc6). .smallcircle., Le^y hexasaccharide ceramide (IV^2 FucIII^3 FucnLc4). Δ, Le^x /Le^x (V^3 FucIII^3 FucnLc6). .quadrature. (all of the following had similar reactivity), H1 type 2 chain (IV^2 nLc4); H2 type 2 chain (IV^2 FucnLc6); PG (nLc4); Le^x (III^3 FucnLc4). When GSL antigens were mixed with cholesterol and phosphatidylcholine in a molar ratio of 1:5:3 in ethanol and analyzed as above, the relative degrees of reactivity were essentially the same as shown in the figure.
The binding specificity of MAb IMH2 was tested by thin-layer chromatography immunostaining of various GSL antigens by the method previously described by Magnani et al. (Anal. Biochem. 109:399-402, 1980), and modified by Kannagi et al. (Cancer Res. 43:4997-5005, 1983). IMH2 reactivity was also determined by antibody binding on solid-phase antigen as follows. Each GSL antigen, dissolved in ethanol (100 ng/50 μl), was placed in a well, serially diluted with ethanol to 0.1 ng/50 μl per well in a flat-bottom 48-well plate (Falcon, Becton-Dickinson, Lincoln Park, N.J.), and dried. The dried antigen in each well was then incubated with 1% bovine serum albumin in PBS for 1 hr at room temperature, followed by reaction with IMH2 (5 μg/ml) for 18 hr at 4° C. Each well was washed with PBS, followed by incubation with biotinylated second antibody and avidin-peroxidase conjugate as prepared in the ELISA assay kit. The orange color developed in each well was read by automated "ELISA reader" (EL312 Biokinetics Reader, Biotek Instruments, Winooski, Vt.), and optical density at […] for each well was recorded.

[2] = system: MAb 1B2; test: TLC immunostaining with MAb 1B2; assay type: binding; settings: TLC immunostaining after enzymatic degradation of dimeric Le^a
Procedure: (§1) MAb ST-421 was established as previously described (Watanabe et al., Jpn. J. Cancer Res. (Gann) 76:43-52, 1985). MAb MNH-1, which defines type 1 chain N-acetyllactosamine (Galβ1→3GlcNAcβ1→R), was prepared in laboratory of the inventors; MAb 1B2, which defines type 2 chain N-acetyllactosamine (Galβ1→4GlcNAcβ1→R), was established as previously described (Young et al., J. Biol. Chem. 256:10967-10972, 1981). Anti-Le^a MAb was obtained from Chembiomed Ltd. (Edmonton, Alberta, Canada). […] HPTLC immunostaining was performed using Whatman HPTLC plates (HP-KF) by a modified version (Kannagi et al., J. Biol. Chem. 257:4438-4442, 1982; Kannagi et al., J. Biol. Chem. 257:14865-14874, 1982) of the method originally described by Magnani et al. (Magnani et al., Anal. Biochem. 109:399-402, 1980).
(§2) Enzymatic degradation of 1 mg dimeric Le^a was performed by sequential hydrolysis with 0.5 units of α-fucosidase (bovine kidney), 0.5 units of β-galactosidase (Cackbean), and 0.5 units of β-N-acetylglucosaminidase (bovine epididymis) (Sigma Chemical Co., St. Louis, Mo.). All reactions were carried out in 0.2 M sodium citrate (pH 4.5) for 4 hr at 37° C. in a water bath with shaking. Purification of each degradative product was performed by preparative HPTLC.
(§3) TLC immunostaining of the purified antigen component with various MAbs was performed before and after successive enzymatic degradation. […] Bands a and b are therefore assumed to be Lc6 (Table III, structure 6) and III^4 FucLc6 (structure 13), respectively, based on their reactivity with MAbs and on further enzymatic degradation patterns.

[3] = system: MAb MNH-1; test: TLC immunostaining with MAb MNH-1; assay type: binding; settings: TLC immunostaining after enzymatic degradation of dimeric Le^a
Procedure: as §1, §2, §3

[4] = system: MAb ST-421; test: TLC immunostaining of GSL with MAb ST-421; assay type: binding
Procedure: as §1
Extended sialyl-Le^a on the SLe^a -Le^a structure was verified by enzymatic degradation with sialidase to yield the same compournd as Le^a -Le^a as verified by thin layer chromatography as well as immunostaining with monoclonal antibody ST-421.

[5] = system: MAb ST-421; test: Solid-phase radioimmunoassay of glycolipids with MAb NCC-ST-421; assay type: binding; settings: ST421 10 μg/ml, initial glycolipid 100 ng
Procedure: FIG. 7 graphically illustrates the reactivity of dimeric Le^a, Le^a -Le^x and related glycolipids with MAb NCC-ST-421. Solid-phase radioimmunoassay with MAb ST-421 using serially-diluted dimeric Le^a, Le^a /Le^x, and various structurally-related glycoilpid antigens. Initial concentration of glycolipids was 100 ng. ST421 was used at a concentration of 10 μg/ml. A, IV^3 Galβ1→3[Fuc1→4]GlcNAcIII^3 FucnLc4 (Le^a /Le^x; structure 10 in Table III); B, V^4 III^4 Fuc2 Lc6 (dimeric Le^a; structure 11); C, IV^3 Galβ1→3[Fucα1→4]GlcNAcnLc4 (structure 8); D, III^4 FucLc4 (structure 1); E, IV^3 (Galβ1→3GlcNAcIII^3 FucnLc4 (structure 9); F, V^3 III^3 Fuc2 nLc6 (structure 7); G, IV^2 FucLc4 (structure 2); H, IV^3 Galβ1→3GlcNAcnLc4 (structure 4); I, IV^2 III^4 Fuc2 Lc4 (structure 3); J, nLc6 (structure 5); K, VI^2 FucnLc6 (type 2 H with nLc6 core; not shown in Table III); L, VI^2 V^3 Fuc2 nLc6 (Le^y with nLc6 core; not shown in Table III).
The solid-phase radioimmunoassay as described by Kannagi et al. (Cancer Res. 43:4997-5005, 1983) was used. […] Dimeric Le^x and various other structurally related GSLs were not reactive with ST421 (FIG. 7).

[6] = system: anti-Le^a MAb; test: Reactivity of GSL with anti-Le^a MAb; assay type: binding
Procedure: as §1, §3

[7] = system: anti-Le^y MAb AH6; test: Reactivity of GSL with anti-Le^y MAb AH6; assay type: binding
Procedure: as §1

[8] = system: anti-Le^b MAbs; test: Reactivity of GSL with anti-Le^b MAbs; assay type: binding
Procedure: as §1

III^3 V^3 Fuc2 nLc6 [Dimeric Le^x]
reactivity of MAb IMH2 with GSL (in words) [1]: reacted weakly

III^4 FucLc6
reactivity with MAb 1B2 [2]: not with anti-Le^a or 1B2
reactivity with MAb MNH-1 [3]: reacted with MAb MNH-1

III^4 V^4 Fuc2 Lc6 [dimeric Le^a]
reactivity with MAb ST-421 [4]: stained strongly

IV^2 FucLc4 [H type 1 chain]
reactivity of MAb IMH2 with GSL (in words) [1]: did not react

IV^2 FucnLc4 [H1]
reactivity of MAb IMH2 with GSL (in words) [1]: did not react

IV^3 Galβ1→3[Fuc1→4]GlcNAcIII^3 FucnLc4 [Le^a /Le^x]
reactivity of MAb IMH2 with GSL (in words) [1]: did not react
reactivity of MAb IMH2 with GSL (in words) ([1]; listed as Le^a /Le^a): reacted weakly
reactivity with ST-421 [5]: strongest reactivity; also recorded: clear preference for them compared to extended Le^a or simple Le^a
reactivity with MAb ST-421 [4]: reacted with anti-Le^a MAb as well as with MAb ST-421
reactivity with MAb ST-421 ([4]; listed as Le^a /Le^a): react strongly; also recorded: reacted with anti-Le^a MAb as well as with MAb ST-421
reactivity with anti-Le^a MAb [6]: reacted with anti-Le^a MAb

Lc4
reactivity of MAb IMH2 with GSL (in words) [1]: did not react
reactivity with MAb 1B2 [2]: did not react
reactivity with MAb MNH-1 [3]: reacted strongly

Lc6
reactivity with MAb 1B2 [2]: not with anti-Le^a or 1B2
reactivity with MAb MNH-1 [3]: reacted with MAb MNH-1

VI^2 FucV^3 FucIII^3 FucnLc6 [Le^y /Le^x]
reactivity of MAb IMH2 with GSL (in words) [1]: reacts strongly; also recorded: reacted equally well; also recorded: reacts
reactivity with anti-Le^y MAb AH6 [7]: reacted with AH6
reactivity with anti-Le^b MAbs [8]: not with anti-Le^b

VI^2 FucnLc6 [H2]
reactivity of MAb IMH2 with GSL (in words) [1]: did not react

nLc4
reactivity of MAb IMH2 with GSL (in words) [1]: did not react
